The record followed here is ChEMBL document CHEMBL5042544, “Discovery of a Potent and Selective ATAD2 Bromodomain Inhibitor with Antiproliferative Activity in Breast Cancer Models” (J Med Chem, 2022).

Each structure is given as a SMILES string.

In experiment [1] the target is T1, ATPase family AAA domain-containing protein 2 (Homo sapiens, UniProt Q6PL18).
T1 sequence (Q6PL18 whole entry): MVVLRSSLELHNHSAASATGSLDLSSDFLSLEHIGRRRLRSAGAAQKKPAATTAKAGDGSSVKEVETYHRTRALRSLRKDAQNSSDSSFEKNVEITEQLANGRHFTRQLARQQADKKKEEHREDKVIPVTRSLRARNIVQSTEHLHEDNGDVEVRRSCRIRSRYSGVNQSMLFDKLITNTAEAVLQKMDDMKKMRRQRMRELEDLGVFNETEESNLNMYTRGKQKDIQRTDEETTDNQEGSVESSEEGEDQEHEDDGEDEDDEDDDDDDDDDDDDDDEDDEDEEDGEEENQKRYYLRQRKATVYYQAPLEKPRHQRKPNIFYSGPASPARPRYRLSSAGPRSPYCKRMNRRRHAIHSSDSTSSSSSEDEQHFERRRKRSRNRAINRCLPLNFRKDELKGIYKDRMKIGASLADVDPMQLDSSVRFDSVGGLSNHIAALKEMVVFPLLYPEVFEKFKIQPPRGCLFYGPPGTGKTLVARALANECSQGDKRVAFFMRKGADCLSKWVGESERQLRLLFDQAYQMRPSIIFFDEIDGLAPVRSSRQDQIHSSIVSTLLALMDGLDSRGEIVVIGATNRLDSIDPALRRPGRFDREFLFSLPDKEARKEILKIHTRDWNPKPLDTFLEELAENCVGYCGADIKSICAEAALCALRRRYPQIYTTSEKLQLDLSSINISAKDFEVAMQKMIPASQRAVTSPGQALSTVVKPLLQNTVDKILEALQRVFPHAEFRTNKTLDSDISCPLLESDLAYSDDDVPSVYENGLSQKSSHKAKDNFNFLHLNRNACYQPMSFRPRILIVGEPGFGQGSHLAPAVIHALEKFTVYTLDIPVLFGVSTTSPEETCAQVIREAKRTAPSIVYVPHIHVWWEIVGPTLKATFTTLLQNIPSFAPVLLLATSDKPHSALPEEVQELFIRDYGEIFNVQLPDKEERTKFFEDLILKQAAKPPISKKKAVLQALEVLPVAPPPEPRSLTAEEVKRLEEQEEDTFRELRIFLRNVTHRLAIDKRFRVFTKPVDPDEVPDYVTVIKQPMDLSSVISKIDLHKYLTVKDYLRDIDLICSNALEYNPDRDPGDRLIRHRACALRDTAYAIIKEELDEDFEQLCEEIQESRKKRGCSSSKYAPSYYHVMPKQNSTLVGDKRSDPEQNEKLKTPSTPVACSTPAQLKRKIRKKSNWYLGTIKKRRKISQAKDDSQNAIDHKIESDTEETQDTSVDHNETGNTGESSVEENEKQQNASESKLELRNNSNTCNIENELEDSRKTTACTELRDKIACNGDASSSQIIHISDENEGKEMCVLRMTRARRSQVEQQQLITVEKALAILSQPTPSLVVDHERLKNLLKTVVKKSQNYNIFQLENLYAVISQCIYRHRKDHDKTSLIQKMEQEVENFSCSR
Put plainly: Inhibition of GST-ATAD2 BD (951 to 1132 residues) (unknown origin) expressed in Escherichia coli BL21 (DE3) and biotinylated tetra-acetylated histone H4 peptides as substrate incubated for 30 mins by TR-FRET assay. (In TR-FRET formats the signal depends on donor and acceptor labels being close together.)

Experiment [2] deals with Bromodomain adjacent to zinc finger domain protein 2A (Homo sapiens) (UniProt Q9UIF9). Put plainly: Binding affinity to human BAZ2A bromodomain assessed as residual activity at 300 nM by BROMOscan method relative to control.
Experiment [3] deals with Bromodomain adjacent to zinc finger domain protein 2B (Homo sapiens) (UniProt Q9UIF8). In words: Binding affinity to human BAZ2B bromodomain assessed as residual activity at 300 nM by BROMOscan method relative to control.
Experiment [4] concerns the target Bromodomain-containing protein 3 (Homo sapiens, UniProt Q15059). In words: Binding affinity to human BRD3 bromodomain 2 assessed as residual activity at 300 nM by BROMOscan method relative to control.
In experiment [5] the target is T2, Bromodomain testis-specific protein (Homo sapiens, UniProt Q58F21). In words: Binding affinity to human BRDT bromodomain 1 assessed as residual activity at 300 nM by BROMOscan method relative to control.
Another experiment deals with Peregrin (Homo sapiens) (UniProt P55201). In words: Binding affinity to human […] bromodomain assessed as residual activity at 300 nM by BROMOscan method relative to control.
Experiment [6] has as its target Bromodomain and PHD finger-containing protein 3 (Homo sapiens) (UniProt Q9ULD4). In words: Binding affinity to human […] bromodomain assessed as residual activity at 300 nM by BROMOscan method relative to control.
Experiment [7] concerns the target T3, Chromatin remodeling regulator CECR2 (Homo sapiens, UniProt Q9BXF3). Put plainly: Binding affinity to human CECR2 bromodomain assessed as residual activity at 300 nM by BROMOscan method relative to control.
Experiment [8] deals with CREB-binding protein (Homo sapiens) (UniProt Q92793). Put plainly: Binding affinity to human CREBBP bromodomain assessed as residual activity at 300 nM by BROMOscan method relative to control.
Experiment [9] concerns the target Histone acetyltransferase KAT2A (Homo sapiens) (UniProt Q92830). Put plainly: Binding affinity to human GCN5L2 bromodomain assessed as residual activity at 300 nM by BROMOscan method relative to control.
In experiment [10] the target is T4, Protein polybromo-1 (Homo sapiens, UniProt Q86U86). In words: Binding affinity to human PBRM1 bromodomain 5 assessed as residual activity at 300 nM by BROMOscan method relative to control.
Experiment [11] addresses Transcription initiation factor TFIID subunit 1-like (Homo sapiens) (UniProt Q8IZX4). Put plainly: Binding affinity to human TAF1L bromodomain 2 assessed as residual activity at 300 nM by BROMOscan method relative to control.
For experiment [12], the target named is Bromodomain and WD repeat-containing protein 1 (Homo sapiens, UniProt Q9NSI6). In words: Binding affinity to human WDR9 bromodomain 2 assessed as residual activity at 300 nM by BROMOscan method relative to control.
The target of experiment [13] is Bromodomain-containing protein 2 (Homo sapiens, UniProt P25440). In words: Binding affinity to human BRD2 bromodomain 1 assessed as dissociation constant by BROMOscan method.
In experiment [14] the target is Bromodomain-containing protein 9 (Homo sapiens, UniProt Q9H8M2). Put plainly: Binding affinity to human BRD9 bromodomain by BROMOscan method.
Experiment [15] has as its target T2, Bromodomain testis-specific protein. In words: Binding affinity to human BRDT bromodomain 1 assessed as dissociation constant by BROMOscan method.
Experiment [16] concerns the target T3, Chromatin remodeling regulator CECR2. Put plainly: Binding affinity to human CECR2 bromodomain assessed as dissociation constant by BROMOscan method.
Experiment [17] concerns the target T4, Protein polybromo-1. In words: Binding affinity to human PBRM1 bromodomain 5 assessed as dissociation constant by BROMOscan method.
For experiment [18], the target named is Transcription initiation factor TFIID subunit 1 (Homo sapiens, UniProt P21675). In words: Binding affinity to human TAF1 bromodomain 2 assessed as dissociation constant by BROMOscan method.
Another experiment relates to T47D. Put plainly: Antiproliferative activity against human T-47D cells expressing ATAD2 assessed as inhibition of colony formation at 0.01 to 10 uM measured after 14 to 21 days by AlamarBlue staining based colony formation assay. The following applies: dose 0.01-10 µM, time 14-21 day. The class given is functional, cell-based. For orientation: Resazurin is reduced to fluorescent resorufin, in cell work by metabolically active cells.

T4 sequence (Q86U86 whole entry): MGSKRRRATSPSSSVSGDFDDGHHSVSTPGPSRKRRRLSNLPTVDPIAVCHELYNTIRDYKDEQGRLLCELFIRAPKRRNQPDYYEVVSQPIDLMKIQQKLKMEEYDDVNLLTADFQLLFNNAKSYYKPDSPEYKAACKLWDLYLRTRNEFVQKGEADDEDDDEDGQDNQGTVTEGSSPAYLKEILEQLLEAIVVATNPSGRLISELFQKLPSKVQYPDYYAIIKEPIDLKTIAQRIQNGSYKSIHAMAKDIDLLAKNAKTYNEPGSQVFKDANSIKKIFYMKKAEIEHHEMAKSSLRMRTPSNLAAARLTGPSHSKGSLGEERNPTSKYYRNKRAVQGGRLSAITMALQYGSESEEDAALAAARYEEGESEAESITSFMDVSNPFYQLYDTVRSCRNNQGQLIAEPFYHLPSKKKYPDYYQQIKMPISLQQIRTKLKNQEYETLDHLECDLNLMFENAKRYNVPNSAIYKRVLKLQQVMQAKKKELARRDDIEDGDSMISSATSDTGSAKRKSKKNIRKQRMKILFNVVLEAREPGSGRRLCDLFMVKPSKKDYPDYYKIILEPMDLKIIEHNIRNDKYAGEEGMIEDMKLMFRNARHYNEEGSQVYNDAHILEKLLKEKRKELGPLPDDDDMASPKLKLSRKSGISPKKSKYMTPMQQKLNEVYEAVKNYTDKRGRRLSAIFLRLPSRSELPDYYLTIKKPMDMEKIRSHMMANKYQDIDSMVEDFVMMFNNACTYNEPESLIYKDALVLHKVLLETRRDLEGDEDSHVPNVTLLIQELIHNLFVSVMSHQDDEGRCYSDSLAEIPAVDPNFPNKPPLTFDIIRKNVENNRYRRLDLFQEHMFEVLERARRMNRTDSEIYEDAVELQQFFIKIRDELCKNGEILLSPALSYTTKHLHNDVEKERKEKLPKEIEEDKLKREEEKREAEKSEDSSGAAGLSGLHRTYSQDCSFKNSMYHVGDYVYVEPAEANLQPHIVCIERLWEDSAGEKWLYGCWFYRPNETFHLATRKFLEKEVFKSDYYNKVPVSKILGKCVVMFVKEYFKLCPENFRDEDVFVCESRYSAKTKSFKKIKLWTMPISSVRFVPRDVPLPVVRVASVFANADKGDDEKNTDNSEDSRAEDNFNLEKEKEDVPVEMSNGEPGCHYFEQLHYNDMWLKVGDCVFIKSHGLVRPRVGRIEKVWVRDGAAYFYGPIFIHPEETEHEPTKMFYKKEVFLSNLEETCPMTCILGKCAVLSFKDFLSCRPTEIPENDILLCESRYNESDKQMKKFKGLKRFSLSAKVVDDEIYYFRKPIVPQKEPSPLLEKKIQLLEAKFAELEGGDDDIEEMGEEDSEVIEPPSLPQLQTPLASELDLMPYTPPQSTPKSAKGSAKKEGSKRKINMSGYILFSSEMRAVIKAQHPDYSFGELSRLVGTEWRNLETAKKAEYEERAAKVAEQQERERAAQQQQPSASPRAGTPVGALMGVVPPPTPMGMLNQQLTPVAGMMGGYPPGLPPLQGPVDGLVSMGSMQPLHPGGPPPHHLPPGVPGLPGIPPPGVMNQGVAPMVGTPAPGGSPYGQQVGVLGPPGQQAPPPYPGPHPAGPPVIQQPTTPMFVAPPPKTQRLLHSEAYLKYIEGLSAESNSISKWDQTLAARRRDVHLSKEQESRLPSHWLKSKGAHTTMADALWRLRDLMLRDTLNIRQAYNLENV
CREB-binding protein (Homo sapiens), sequence (Q92793 2-2442 limits assumed): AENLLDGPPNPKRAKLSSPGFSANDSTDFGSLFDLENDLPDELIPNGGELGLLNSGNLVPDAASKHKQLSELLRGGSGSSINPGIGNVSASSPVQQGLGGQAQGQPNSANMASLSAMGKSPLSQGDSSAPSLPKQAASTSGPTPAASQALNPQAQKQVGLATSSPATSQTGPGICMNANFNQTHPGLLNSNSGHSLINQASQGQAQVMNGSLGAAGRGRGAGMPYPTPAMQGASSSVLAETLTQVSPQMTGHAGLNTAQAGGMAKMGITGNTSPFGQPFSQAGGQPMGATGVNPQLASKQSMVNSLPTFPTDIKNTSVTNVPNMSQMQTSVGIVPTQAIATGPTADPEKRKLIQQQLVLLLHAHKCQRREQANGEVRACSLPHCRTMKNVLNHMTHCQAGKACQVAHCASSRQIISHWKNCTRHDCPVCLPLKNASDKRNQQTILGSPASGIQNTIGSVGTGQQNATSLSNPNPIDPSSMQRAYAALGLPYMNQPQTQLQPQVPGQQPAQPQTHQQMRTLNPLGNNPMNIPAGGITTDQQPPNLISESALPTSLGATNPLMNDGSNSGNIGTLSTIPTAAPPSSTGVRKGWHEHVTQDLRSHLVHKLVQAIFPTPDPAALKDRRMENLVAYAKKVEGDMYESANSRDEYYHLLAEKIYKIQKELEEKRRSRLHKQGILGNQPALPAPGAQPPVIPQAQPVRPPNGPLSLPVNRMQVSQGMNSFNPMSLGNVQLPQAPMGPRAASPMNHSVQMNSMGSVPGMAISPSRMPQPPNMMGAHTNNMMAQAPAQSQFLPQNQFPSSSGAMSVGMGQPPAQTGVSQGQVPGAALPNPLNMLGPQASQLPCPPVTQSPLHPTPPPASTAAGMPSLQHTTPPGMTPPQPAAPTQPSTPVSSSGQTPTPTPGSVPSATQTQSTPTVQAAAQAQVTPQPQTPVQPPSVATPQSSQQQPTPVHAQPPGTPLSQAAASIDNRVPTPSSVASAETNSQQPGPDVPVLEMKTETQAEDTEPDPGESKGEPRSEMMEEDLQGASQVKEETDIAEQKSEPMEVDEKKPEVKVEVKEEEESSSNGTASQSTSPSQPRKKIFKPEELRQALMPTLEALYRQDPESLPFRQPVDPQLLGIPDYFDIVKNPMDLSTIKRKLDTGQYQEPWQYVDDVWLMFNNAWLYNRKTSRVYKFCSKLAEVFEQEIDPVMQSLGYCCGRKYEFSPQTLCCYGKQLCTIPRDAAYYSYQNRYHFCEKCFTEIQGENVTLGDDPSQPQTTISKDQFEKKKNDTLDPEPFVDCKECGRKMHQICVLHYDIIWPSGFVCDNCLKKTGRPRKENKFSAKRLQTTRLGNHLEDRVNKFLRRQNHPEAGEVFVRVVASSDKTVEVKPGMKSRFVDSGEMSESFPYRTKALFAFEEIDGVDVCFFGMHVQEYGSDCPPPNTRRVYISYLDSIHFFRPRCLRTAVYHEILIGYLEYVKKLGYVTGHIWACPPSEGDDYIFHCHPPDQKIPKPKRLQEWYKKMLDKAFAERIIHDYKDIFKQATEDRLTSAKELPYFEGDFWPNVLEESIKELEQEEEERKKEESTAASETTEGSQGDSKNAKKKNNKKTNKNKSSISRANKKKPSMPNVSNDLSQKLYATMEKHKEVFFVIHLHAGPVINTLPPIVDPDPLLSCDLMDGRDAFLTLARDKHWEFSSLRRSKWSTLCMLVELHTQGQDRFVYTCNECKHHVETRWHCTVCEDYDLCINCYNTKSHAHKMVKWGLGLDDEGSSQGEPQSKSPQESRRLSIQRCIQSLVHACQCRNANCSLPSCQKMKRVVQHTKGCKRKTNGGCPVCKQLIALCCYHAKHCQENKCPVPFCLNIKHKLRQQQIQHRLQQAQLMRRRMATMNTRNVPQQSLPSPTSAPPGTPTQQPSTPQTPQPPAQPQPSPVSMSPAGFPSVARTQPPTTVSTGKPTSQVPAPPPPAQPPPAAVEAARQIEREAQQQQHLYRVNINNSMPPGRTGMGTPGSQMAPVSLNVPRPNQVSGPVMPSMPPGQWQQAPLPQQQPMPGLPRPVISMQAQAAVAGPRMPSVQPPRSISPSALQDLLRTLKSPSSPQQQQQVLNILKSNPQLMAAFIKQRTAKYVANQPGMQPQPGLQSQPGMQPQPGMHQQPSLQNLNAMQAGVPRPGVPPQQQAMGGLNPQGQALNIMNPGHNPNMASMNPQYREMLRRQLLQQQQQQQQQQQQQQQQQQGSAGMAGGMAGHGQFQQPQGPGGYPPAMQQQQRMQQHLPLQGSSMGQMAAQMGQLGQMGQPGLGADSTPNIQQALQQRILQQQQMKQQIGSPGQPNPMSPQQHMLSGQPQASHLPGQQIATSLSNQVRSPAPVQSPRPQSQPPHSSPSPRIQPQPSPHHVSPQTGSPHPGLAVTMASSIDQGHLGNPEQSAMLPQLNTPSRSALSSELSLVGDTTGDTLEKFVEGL
Bromodomain-containing protein 3, sequence (Q15059 2-726 limits assumed): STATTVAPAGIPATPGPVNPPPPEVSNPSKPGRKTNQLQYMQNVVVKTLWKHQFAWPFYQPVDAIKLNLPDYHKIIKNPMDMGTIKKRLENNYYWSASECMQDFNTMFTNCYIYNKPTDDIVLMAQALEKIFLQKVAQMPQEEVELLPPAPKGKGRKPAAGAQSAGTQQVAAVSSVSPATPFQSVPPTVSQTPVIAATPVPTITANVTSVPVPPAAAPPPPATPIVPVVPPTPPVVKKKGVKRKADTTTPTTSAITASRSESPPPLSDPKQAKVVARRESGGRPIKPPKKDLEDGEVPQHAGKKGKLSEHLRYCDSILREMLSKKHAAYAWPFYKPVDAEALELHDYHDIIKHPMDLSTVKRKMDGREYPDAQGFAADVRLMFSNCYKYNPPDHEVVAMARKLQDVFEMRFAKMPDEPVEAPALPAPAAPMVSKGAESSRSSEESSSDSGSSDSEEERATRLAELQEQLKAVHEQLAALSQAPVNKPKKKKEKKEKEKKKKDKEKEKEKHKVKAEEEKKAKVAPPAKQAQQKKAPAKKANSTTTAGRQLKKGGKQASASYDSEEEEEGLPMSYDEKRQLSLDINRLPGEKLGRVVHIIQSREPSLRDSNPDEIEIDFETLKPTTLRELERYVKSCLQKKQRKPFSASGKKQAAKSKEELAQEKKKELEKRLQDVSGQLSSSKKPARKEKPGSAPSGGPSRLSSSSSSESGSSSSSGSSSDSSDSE

With `Cc1nnc2c(NC3CCN(CC(C)(C)F)CC3)cc(C(=O)N3[C@@H]4c5ccccc5C[C@H]3C(=O)N[C@@H]4C(C)C)nn12`, the midpoint of inhibition in experiment [1], the IC50, lay at 7 nM. In addition, the Activity in [2] came to 82%; in experiment [3], 75%; in experiment [4] it was 56%; in [5], 48%; at Peregrin (Homo sapiens), 79%; in experiment [6] it was 66%. For the same molecule, the Activity in experiment [7] turned out to be 59%; in experiment [8] it was 61%; in experiment [9], 73%; at Protein polybromo-1 [10] it was 52%; in [11], 82%; in experiment [12], 53%. The Activity entry in the experiment with T47D was “Dose-Dependent Effect”. In addition, the Kd – broadly, a measure of binding affinity in units of concentration – in experiment [13] was 126 nM; in [14], > 316 nM; in experiment [15], 200 nM; in experiment [16], > 316 nM; on Protein polybromo-1 [17], > 316 nM; in experiment [18], 158 nM.
